Reference: patent US20070032477A1, “Pteridine derivatives useful for making pharmaceutical compositions” (priority 2003, published 2007)

Columns and labels:
[1] = tested on: mixed lymphocyte reaction (PBMC with allogeneic PBMC or Eppstein-Barr Virus-transformed human B cells as stimulator cells); experiment: Mixed lymphocyte reaction (MLR) assay; type: cell-based; settings: lowest concentration giving 50% suppression of the MLR; [3H]-thymidine
[2] = tested on: production of TNF-α by PBMC in response to stimulation by LPS; experiment: TNF-α assay; type: cell-based, human; settings: LPS 1 μg/ml, 72 hours, sandwich ELISA
In short: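 Cells were LPS-stimulated (1 μg/ml final) peripheral blood mononuclear cells at 10^6/ml, exposed 72 h at 37 °C to 0.1, 1 or 10 μM test compound.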

[3] = tested on: production of IL-1 β by PBMC in response to stimulation by LPS; experiment: IL-1 β assay; type: cell-based, human; settings: LPS 1 μg/ml, 72 hours, sandwich ELISA
Description: Peripheral blood mononuclear cells (herein referred as PBMC), in response to stimulation by lipopolysaccharide (LPS), a gram-negative bacterial endotoxin, produce various […], in particular human IL-1 β. Inhibition of the activation of PBMC can therefore be measured by the level of suppression of the production of IL-1 β by PBMC in response to stimulation by LPS.
Such inhibition measurement was performed as follows: PBMC were isolated from heparinized peripheral blood by density gradient centrifugation over Lymphoprep (commercially available from Nycomed, Norway). LPS was then added to the PMBC suspension in complete medium (10^6 cells/ml) at a final concentration of 1 μg/ml. The pteridine derivative to be tested was added at different concentrations (0.1 μM, 1 μM and 10 μM) and the cells were incubated at 37° C. for 72 hours in 5% CO2. The supernatants were collected, then IL-1 β concentrations were measured with an anti-IL-1 β antibody in a sandwich ELISA. The calorimetric reading of the ELISA was measured by a Multiskan RC plate reader (commercially available from ThermoLabsystems, Finland) at 450 nm (reference wavelength: 690 nm). Data analysis was performed with Ascent software 2.6. (also from ThermoLabsystems, Finland): a standard curve (recombinant human IL-1 β) was drawn and the amount (pg/ml) of each sample on the standard curve was determined.
The % suppression of human IL-1 β by the pteridine derivatives (drugs) of this invention was calculated using the formula: [formula]

Structure (SMILES)	IC50 [1] [nM]	IC50 [2] [nM]	IC50 [3] [nM]
COc1ccc(-c2cnc3nc(N)nc(N4CCN(Cc5cccc(C)c5)CC4)c3n2)cc1OC [Example 136, 2-amino-4-(1-(3-methyl-benzyl)piperazinyl)-6-(3,4-dimethoxyphenyl)pteridine]	1400	800	4700
COc1ccc(-c2cnc3nc(N)nc(N4CCN(c5ncccn5)CC4)c3n2)cc1OC [Example 147, 2-amino-4-((2-pyrimidinyl)-piperazin-1-yl)-6-(3,4-dimethoxyphenyl)pteridine]	200	100	4300
COc1ccc(-c2cnc3nc(N)nc(N4CCN(CCCc5ccccc5)CC4)c3n2)cc1OC [Example 149]	500	300	4900
COc1ccc(-c2cnc3nc(N)nc(N4CCN(c5ccc(Cl)c(Cl)c5)CC4)c3n2)cc1OC [Example 150, 2-amino-4-((3,4-dichlorophenyl)-piperazin-1-yl)-6-(3,4-dimethoxyphenyl)pteridine]	1000	300	3500
COc1ccc(-c2cnc3nc(N)nc(N4CCN(CCn5cccc5)CC4)c3n2)cc1OC [Example 153]	200	100	2000
COc1ccc(-c2cnc3nc(N)nc(N4CCN(CCOc5ccccc5)CC4)c3n2)cc1OC [Example 154]	100	30	2200
COc1ccc(-c2cnc3nc(N)nc(N4CCN(Cc5ccncc5)CC4)c3n2)cc1OC [Example 157]	500	300	2300
COc1ccc(-c2cnc3nc(N)nc(N4CCN(CCc5ccccc5)CC4)c3n2)cc1OC [Example 159, 2-amino-4-(N-phenethylpiperazin-1-yl)-6-(3,4-dimethoxyphenyl)pteridine]	110	20	5400
COc1ccc(N2CCN(c3nc(N)nc4ncc(-c5ccc(OC)c(OC)c5)nc34)CC2)cc1 [Example 161, 2-amino-4-((4-methoxyphenyl)-piperazin-1-yl)-6-(3,4-dimethoxyphenyl)pteridine]	400	60	3200
COc1ccc(-c2cnc3nc(N)nc(N4CCN(c5ccc(Cl)cc5)CC4)c3n2)cc1OC [Example 162, 2-amino-4-((4-chlorophenyl)-piperazin-1-yl)-6-(3,4-dimethoxyphenyl)pteridine]	800	400	3800
CCC(CC)N1CCN(c2nc(N)nc3ncc(-c4ccc(OC)c(OC)c4)nc23)CC1 [Example 166, 2-amino-6-(3,4-dimethoxyphenyl)-4-(pent-3-yl-piperazin-1-yl)pteridine]	5300	800	4400
CCCCCN1CCN(c2nc(N)nc3ncc(-c4ccc(OC)c(OC)c4)nc23)CC1 [Example 167, 2-amino-6-(3,4-dimethoxyphenyl)-4-(1-pentyl-piperazin-1-yl)pteridine]	3800	300	3700
COc1ccc(-c2cnc3nc(N)nc(N4CCN(c5ccc(F)cc5)CC4)c3n2)cc1OC [Example 172, 2-amino-6-(3,4-dimethoxyphenyl)-4-((4-fluorophenyl)-piperazin-1-yl)pteridine]	100	50	5100
COc1ccc(-c2cnc3nc(N)nc(N4CCN(c5ccc(C)c(C)c5)CC4)c3n2)cc1OC [Example 174, 2-amino-6-(3,4-dimethoxyphenyl)-4-((3,4-dimethylphenyl)-piperazin-1-yl)pteridine]	500	110	5000
COc1ccc(-c2cnc3nc(N)nc(N4CCN(c5nccs5)CC4)c3n2)cc1OC [Example 178]	1300	150	4000
